{
  "source": "patent US20080188503A1",
  "about": "“New Compounds II” (AstraZenaca AB, priority 2006, published 2008)",
  "data": [
    {"molecular_target": "T1, recombinant human GSK3β (Homo sapiens, UniProt P49841)", "T1 construct": "purchased Dundee University, UK", "T1 sequence (P49841 whole entry)": "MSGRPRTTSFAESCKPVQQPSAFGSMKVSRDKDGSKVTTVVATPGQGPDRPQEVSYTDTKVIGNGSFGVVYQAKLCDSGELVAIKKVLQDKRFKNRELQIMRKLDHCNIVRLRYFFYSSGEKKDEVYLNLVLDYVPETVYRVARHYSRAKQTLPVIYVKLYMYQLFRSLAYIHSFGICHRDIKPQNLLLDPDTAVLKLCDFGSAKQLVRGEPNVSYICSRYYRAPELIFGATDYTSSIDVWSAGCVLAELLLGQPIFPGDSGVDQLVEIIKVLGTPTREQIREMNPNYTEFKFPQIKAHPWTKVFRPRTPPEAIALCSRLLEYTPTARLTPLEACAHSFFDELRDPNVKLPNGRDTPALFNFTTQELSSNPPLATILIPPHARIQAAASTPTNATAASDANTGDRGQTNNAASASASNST", "test": "GSK3β Scintillation Proximity Assay (ATP competition)", "assay_type": "biochemical", "details": "recombinant human GSK3β SPA; 1 μM ATP, 1 μM biotinylated peptide substrate; Ki calculated with Km of ATP 20 μM", "experimental": "Determination of ATP Competition in Scintillation Proximity GSK3β Assay.\nGSK3β Scintillation Proximity Assay.\nThe competition experiments were carried out in duplicate with 10 different concentrations of the inhibitors in clear-bottom microtiter plates (Wallac, Finland). A biotinylated peptide substrate, Biotin-Ala-Ala-Glu-Glu-Leu-Asp-Ser-Arg-Ala-Gly-Ser(PO3H2)-Pro-Gln-Leu (AstraZeneca, Lund), was added at a final concentration of 1 μM in an assay buffer containing 1 mU recombinant human GSK3β (Dundee University, UK), 12 mM morpholinepropanesulfonic acid (MOPS), pH 7.0, 0.3 mM EDTA, 0.01% β-mercaptoethanol, 0.004% Brij 35 (a […] detergent), 0.5% glycerol and 0.5 μg BSA/25 μl. The reaction was initiated by the addition of 0.04 μCi [γ-^33P]ATP (Amersham, UK) and unlabelled ATP at a final concentration of 1 μM and assay volume of 25 μl. After incubation for 20 minutes at room temperature, each reaction was terminated by the addition of 25 μl stop solution containing 5 mM EDTA, 50 μM ATP, 0.1% Triton X-100 and 0.25 mg streptavidin coated Scintillation Proximity Assay (SPA) beads (Amersham, UK). After 6 hours the radioactivity was determined in a liquid scintillation counter (1450 MicroBeta Trilux, Wallac). The inhibition curves were analysed by non-linear regression using GraphPad Prism, USA. The Km value of ATP for GSK3β, used to calculate the inhibition constants (Ki) of the various compounds, was 20 μM.", "units": {"Ki": "nM"}, "values": [
      {"compound": "Cc1ncc(-c2nc(Nc3cncnc3)ncc2F)n1C1CCOCC1", "note": "[Example 1, 5-Fluoro-4-[2-methyl-1-(tetrahydro-2H-pyran-4-yl)-1H-imidazol-5-yl]-N-pyrimidin-5-ylpyrimidin-2-amine]", "Ki": 220},
      {"compound": "CC(=O)c1cncc(Nc2ncc(F)c(-c3cnc(C)n3C3CCOCC3)n2)c1", "note": "[Example 2, 1-[5-({5-Fluoro-4-[2-methyl-1-(tetrahydro-2H-pyran-4-yl)-1H-imidazol-5-yl]pyrimidin-2-yl}amino)pyridin-3-yl]ethanone]", "Ki": 49},
      {"compound": "COc1cccc(Nc2ncc(F)c(-c3cnc(C)n3C3CCOCC3)n2)n1", "note": "[Example 3, 5-Fluoro-N-(6-methoxypyridin-2-yl)-4-[2-methyl-1-(tetrahydro-2H-pyran-4-yl)-1H-imidazol-5-yl]pyrimidin-2-amine]", "Ki": 530},
      {"compound": "Cc1ncc(-c2nc(Nc3ccc(C(F)(F)F)cn3)ncc2F)n1C1CCOCC1", "note": "[Example 4, 5-Fluoro-4-[2-methyl-1-(tetrahydro-2H-pyran-4-yl)-1H-imidazol-5-yl]-N-[5-(trifluoromethyl)pyridin-2-yl]pyrimidin-2-amine]", "Ki": 2600},
      {"compound": "Cc1ccc(Nc2ncc(F)c(-c3cnc(C)n3C3CCOCC3)n2)cn1", "note": "[Example 5, 5-Fluoro-N-(6-methylpyridin-3-yl)-4-[2-methyl-1-(tetrahydro-2H-pyran-4-yl)-1H-imidazol-5-yl]pyrimidin-2-amine]", "Ki": 28},
      {"compound": "COc1ccnc(Nc2ncc(F)c(-c3cnc(C)n3C3CCOCC3)n2)c1", "note": "[Example 6, 5-Fluoro-N-(4-methoxypyridin-2-yl)-4-[2-methyl-1-(tetrahydro-2H-pyran-4-yl)-1H-imidazol-5-yl]pyrimidin-2-amine]", "Ki": 1100},
      {"compound": "Cc1ncc(-c2nc(Nc3ccc(CN4CCOCC4)nc3)ncc2F)n1C1CCOCC1", "note": "[Example 10, 5-Fluoro-4-[2-methyl-1-(tetrahydro-2H-pyran-4-yl)-1H-imidazol-5-yl]-N-[6-(morpholin-4-ylmethyl)pyridin-3-yl]pyrimidin-2-amine]", "Ki": 64},
      {"compound": "Cc1ncc(-c2nc(Nc3ccc(CN4CCCCC4)nc3)ncc2F)n1C1CCOCC1", "note": "[Example 12, 5-Fluoro-4-[2-methyl-1-(tetrahydro-2H-pyran-4-yl)-1H-imidazol-5-yl]-N-[6-(piperidin-1-ylmethyl)pyridin-3-yl]pyrimidin-2-amine]", "Ki": 260},
      {"compound": "Cc1ncc(-c2nc(Nc3ccc(CN4CCCN(C)CC4)nc3)ncc2F)n1C1CCOCC1", "note": "[Example 13, 5-Fluoro-N-{6-[(4-methyl-1,4-diazepan-1-yl)methyl]pyridin-3-yl}-4-[2-methyl-1-(tetrahydro-2H-pyran-4-yl)-1H-imidazol-5-yl]pyrimidin-2-amine]", "Ki": 290},
      {"compound": "Cc1ncc(-c2nc(Nc3ccc(CN4CCN(c5ncccn5)CC4)nc3)ncc2F)n1C1CCOCC1", "note": "[Example 14, 5-Fluoro-4-[2-methyl-1-(tetrahydro-2H-pyran-4-yl)-1H-imidazol-5-yl]-N-{6-[(4 pyrimidin-2-ylpiperazin-1-yl)methyl]pyridin-3-yl}pyrimidin-2-amine]", "Ki": 10},
      {"compound": "COC[C@@H]1CCCN1Cc1ccc(Nc2ncc(F)c(-c3cnc(C)n3C3CCOCC3)n2)cn1", "note": "[Example 15, 5-Fluoro-N-(6-{[(2S)-2-(methoxymethyl)pyrrolidin-1-yl]methyl}pyridin-3-yl)-4-[2-methyl-1-(tetrahydro-2H-pyran-4-yl)-1H-imidazol-5-yl]pyrimidin-2-amine]", "Ki": 1300},
      {"compound": "CC(=O)N1CCCN(Cc2ccc(Nc3ncc(F)c(-c4cnc(C)n4C4CCOCC4)n3)cn2)CC1", "note": "[Example 16, N-{6-[(4-Acetyl-1,4-diazepan-1-yl)methyl]pyridin-3-yl}-5-fluoro-4-[2-methyl-1-(tetrahydro-2H-pyran-4-yl)-1H-imidazol-5-yl]pyrimidin-2-amine]", "Ki": 75},
      {"compound": "Cc1ncc(-c2nc(Nc3ccc(CN4CC(C)OC(C)C4)nc3)ncc2F)n1C1CCOCC1", "note": "(stereo not shown) [Example 17, N-{6-[(2,6-Dimethylmorpholin-4-yl)methyl]pyridin-3-yl}-5-fluoro-4-[2-methyl-1-(tetrahydro-2H-pyran-4-yl)-1H-imidazol-5-yl]pyrimidin-2-amine]", "Ki": 760},
      {"compound": "Cc1ncc(-c2nc(Nc3ccc(CN4CCC(F)(F)CC4)nc3)ncc2F)n1C1CCOCC1", "note": "[Example 18, N-{6-[(4,4-Difluoropiperidin-1-yl)methyl]pyridin-3-yl}-5-fluoro-4-[2-methyl-1-(tetrahydro-2H-pyran-4-yl)-1H-imidazol-5-yl]pyrimidin-2-amine]", "Ki": 42},
      {"compound": "Cc1ncc(-c2nc(Nc3ccc(CN4CCCC4)nc3)ncc2F)n1C1CCOCC1", "note": "[Example 19, 5-Fluoro-4-[2-methyl-1-(tetrahydro-2H-pyran-4-yl)-1H-imidazol-5-yl]-N-[6-(pyrrolidin-1-ylmethyl)pyridin-3-yl]pyrimidin-2-amine]", "Ki": 210},
      {"compound": "Cc1ncc(-c2nc(Nc3ccc(CNCc4ccc(Cl)nc4)nc3)ncc2F)n1C1CCOCC1", "note": "[Example 20, N-[6-({[(6-Chloropyridin-3-yl)methyl]amino}methyl)pyridin-3-yl]-5-fluoro-4-[2-methyl-1-(tetrahydro-2H-pyran-4-yl)-1H-imidazol-5-yl]pyrimidin-2-amine]", "Ki": 37},
      {"compound": "Cc1ncc(-c2nc(Nc3ccc(CN4CCCOCC4)nc3)ncc2F)n1C1CCOCC1", "note": "[Example 21, 5-Fluoro-4-[2-methyl-1-(tetrahydro-2H-pyran-4-yl)-1H-imidazol-5-yl]-N-[6-(1,4 oxazepan-4-ylmethyl)pyridin-3-yl]pyrimidin-2-amine]", "Ki": 79},
      {"compound": "COC1CCN(Cc2ccc(Nc3ncc(F)c(-c4cnc(C)n4C4CCOCC4)n3)cn2)CC1", "note": "[Example 22, 5-Fluoro-N-{6-[(4-methoxypiperidin-1-yl)methyl]pyridin-3-yl}-4-[2-methyl-1-(tetrahydro-2H-pyran-4-yl)-1H-imidazol-5-yl]pyrimidin-2-amine]", "Ki": 150},
      {"compound": "Cc1ncc(-c2nc(Nc3ccc(CN4CCCC(CO)C4)nc3)ncc2F)n1C1CCOCC1", "note": "(stereo not shown) [Example 23, (1-{[5-({5-Fluoro-4-[2-methyl-1-(tetrahydro-2H-pyran-4-yl)-1H-imidazol-5-yl]pyrimidin-2-yl}amino)pyridin-2-yl]methyl}piperidin-3-yl)methanol]", "Ki": 170},
      {"compound": "Cc1ncc(-c2nc(Nc3ccc(CNCCCN4CCCC4=O)nc3)ncc2F)n1C1CCOCC1", "note": "[Example 24, 1-[3-({[5-({5-Fluoro-4-[2-methyl-1-(tetrahydro-2H-pyran-4-yl)-1H-imidazol-5-yl]pyrimidin-2-yl}amino)pyridin-2-yl]methyl}amino)propyl]pyrrolidin-2-one]", "Ki": 230},
      {"compound": "Cc1ncc(-c2nc(Nc3ccc(CN4CCC(N5CCCC5)CC4)nc3)ncc2F)n1C1CCOCC1", "note": "[Example 25, 5-Fluoro-4-[2-methyl-1-(tetrahydro-2H-pyran-4-yl)-1H-imidazol-5-yl]-N-{6-[(4 pyrrolidin-1-ylpiperidin-1-yl)methyl]pyridin-3-yl}pyrimidin-2-amine]", "Ki": 210},
      {"compound": "Cc1ncc(-c2nc(Nc3ccc(CN(CCC#N)CC4CCCO4)nc3)ncc2F)n1C1CCOCC1", "note": "(stereo not shown) [Example 26, 3-[{[5-({5-Fluoro-4-[2-methyl-1-(tetrahydro-2H-pyran-4-yl)-1H-imidazol-5-yl]pyrimidin-2-yl}amino)pyridin-2-yl]methyl}(tetrahydrofuran-2-ylmethyl)amino]propanenitrile]", "Ki": 75},
      {"compound": "Cc1ncc(-c2nc(Nc3ccc(CN4CCC4)nc3)ncc2F)n1C1CCOCC1", "note": "[Example 27, N-[6-(Azetidin-1-ylmethyl)pyridin-3-yl]-5-fluoro-4-[2-methyl-1-(tetrahydro-2H-pyran-4-yl)-1H-imidazol-5-yl]pyrimidin-2-amine]", "Ki": 330},
      {"compound": "CCN(CCOC)Cc1ccc(Nc2ncc(F)c(-c3cnc(C)n3C3CCOCC3)n2)cn1", "note": "[Example 28, N-(6-{[Ethyl(2-methoxyethyl)amino]methyl}pyridin-3-yl)-5-fluoro-4-[2-methyl-1-(tetrahydro-2H-pyran-4-yl)-1H-imidazol-5-yl]pyrimidin-2-amine]", "Ki": 280},
      {"compound": "Cc1ncc(-c2nc(Nc3ccc(CNCC#N)nc3)ncc2F)n1C1CCOCC1", "note": "[Example 29, ({[5-({5-Fluoro-4-[2-methyl-1-(tetrahydro-2H-pyran-4-yl)-1H-imidazol-5-yl]pyrimidin-2-yl}amino)pyridin-2-yl]methyl}amino)acetonitrile]", "Ki": 48},
      {"compound": "Cc1ncc(-c2nc(Nc3cncc4ccccc34)ncc2F)n1C1CCOCC1", "note": "[Example 30, {5-Fluoro-4-[2-methyl-3-(tetrahydro-pyran-4-yl)-3H-imidazol-4-yl]-pyrimidin-2-yl}-isoquinolin-4-yl-amine]", "Ki": 200},
      {"compound": "Cc1ncc(-c2nc(Nc3ccncc3)ncc2F)n1C1CCOCC1", "note": "[Example 31, {5-Fluoro-4-[2-methyl-3-(tetrahydro-pyran-4-yl)-3H-imidazol-4-yl]-pyrimidin-2-yl}-pyridin-4-yl-amine]", "Ki": 39},
      {"compound": "Cc1ncc(-c2nc(NC3CCN(C(=O)OC(C)(C)C)CC3)ncc2F)n1C1CCOCC1", "note": "[Example 33, tert-Butyl 4-({5-fluoro-4-[2-methyl-1-(tetrahydro-2H-pyran-4-yl)-1H-imidazol-5-yl]pyrimidin-2-yl}amino)piperidine-1-carboxylate]", "Ki": 210}
    ]}
  ]
}
